The results in this text go back to patent US20250160718A1, “SYSTEMS AND METHODS FOR HIGH-DENSITY LONG-TERM INTRACELLULAR ELECTROPHYSIOLOGY” (President and Fellows of Harvard College, priority 2022, published 2025).

Test [1] relates to MDCK cells. On the procedure: This example describes a technique that uses cross-electrode impedance mapping to quantify adhesion or adherence of cells in a cell culture. The terms “adhesion” and “adherence” may be used interchangeably herein.
In this example, ethylenediaminetetraacetic acid (EDTA) was applied to the cells. EDTA is a calcium chelator that removes Ca^2+ needed for integrin proteins to maintain cell adhesion. With EDTA applied, the cells quickly detached over a duration of time of about 50 min. The EDTA was then washed out by adding normal culture media, where the cells re-attached over a duration of time of about 200 min.
FIG. 6b is a data plot showing mean normalized impedance values over time for different regions of a map 601 of an electrode array in the cell culture. FIG. 6c show histograms of the normalized impedance values before, during, and after a washout of EDTA across the electrode array.

For test [2], the system named is MDCK cells. In words: Wound healing assay (electrochemical patterning and cross-electrode impedance mapping of regrowth). It counts as cell-based, Canine. The note with it: 1 μM, over the course of 72 hours; control culture shows regrowth after 72 hours. The text has this:
This example describes a combined application of cross-electrode impedance mapping and cell patterning for a wound healing assay. Such assays may be used to gauge cell growth rate and metabolism and may be useful for screening drugs affecting these parameters. Compared to the electrochemical patterning described herein, other tools mechanically generate a wound in a cell culture via a mechanical scratch which is both difficult to control and limiting in terms of wound pattern.
In this example, a wound is made in MDCK cells and then growth is mapped in real time. […] These patterns were defined by applying electrode currents of −10 nA for 40 s versus a Ag/AgCl pseudo reference electrode. The regrowth of the culture was then measured using the impedance mapping method.

As to `O=C(O)CN(CCN(CC(=O)O)CC(=O)O)CC(=O)O` [EDTA, ethylenediaminetetraacetic acid], the “duration of time over which the cells detached” value with MDCK cells [1] (5 mM EDTA application) is reported as “about 50 min”. Moreover, the “duration of time over which the cells re-attached after washout” value with MDCK cells [1] (EDTA washed out by adding normal culture media) was “about 200 min”.
On to `C=C1[C@@H](C)[C@H]2[C@H](Cc3ccccc3)NC(=O)[C@]23OC(=O)/C=C/[C@H](O)CCC[C@@H](C)C/C=C/[C@H]3[C@@H]1O` [cytochalasin B], for which the “regrowth of the culture into the wound” value in the test with MDCK cells [2] is recorded as “very little growth”.
